Details: for mass density: 101.33 kPa, Liquid, Pycnometric method

CCCCn1cc[n+](C)c1.F[P-](F)(F)(F)(F)F [1-butyl-3-methylimidazolium hexafluorophosphate]
Details	Triple point temperature [K]	mass density [kg/m3]
298.23 K	–	1365.95
302.89 K	–	1362.05
307.9 K	–	1357.94
312.67 K	–	1353.99
317.58 K	–	1349.92
322.33 K	–	1346.02
327.16 K	–	1342.02
344.23 K	–	1328.03
348.93 K	–	1324.35
353.47 K	–	1320.69
Crystal	283.51	–

Details	Glass transition temperature [°C]
Glass, Adiabatic calorimetry	-82.5
